Values of other authors as cited in paper PMC11510164 (Pharmaceuticals, 2024).

Test system: not given
Settings: 25 °C
In the case of Cc1cccc(Nc2ccccc2C(=O)O)c1C [MFA, Mefenamic acid, reference compound], the water solubility is listed as 10 to 20 mg/L.

Same assay, conditions: pure component (ChCl: solid); ref per cell: 90, 123, 125, 126, 127, 129, 137, 139
For OCC(O)CO [Gly, Glycerol], the “Density (g/cm^3)” value is listed as 1.26 [129] g/cm^3.
For OC[C@H]1OC(O)(CO)[C@@H](O)[C@@H]1O (stereo partly drawn) [Fru, D-(−)-fructose], the “Density (g/cm^3)” value is given as 1.60 [126] g/cm^3.
For C=C(C)[C@H]1CC=C(C)CC1 [Lim, (R)-(+)-limonene], the “Density (g/cm^3)” value is listed as 0.84 [126] g/cm^3.
In the case of CC(C)Cc1ccc(C(C)C(=O)O)cc1 (stereo not shown) [IBU, Ibuprofen, reference compound], the “Density (g/cm^3)” value is given as 1.03 [123] g/cm^3.
In the case of OC[C@@H](O)[C@H](O)[C@@H](O)CO [Xyl, Xylitol], the “Density (g/cm^3)” value is given as 1.50 [137] g/cm^3.
For O=C(O)C(=O)O [Oxa, Oxalic acid], the “Density (g/cm^3)” value is listed as 1.90 [126] g/cm^3.
For OC[C@H]1O[C@H](O)[C@H](O)[C@@H](O)[C@@H]1O [Glu, D-(+)-glucose], the “Density (g/cm^3)” value is listed as 1.5620 [126] g/cm^3.
In the case of CC1CCC(C(C)C)C(O)C1 (racemic) [MNT, (±)-menthol], the “Density (g/cm^3)” value is listed as 0.89 [90] g/cm^3.
For OC[C@@H](O)[C@@H](O)[C@H](O)[C@@H](O)CO [Sor, D-(−)-sorbitol], the “Density (g/cm^3)” value is listed as 1.47 [129] g/cm^3.
For N=C(N)NCCC[C@H](N)C(=O)O [Arg, L-Arginine], the “Density (g/cm^3)” value is given as 1.42 [126] g/cm^3.
In the case of CCCCCCCCCC(=O)O [Dec, Decanoic acid (capric acid)], the “Density (g/cm^3)” value is given as 0.89 [126] g/cm^3.
For O=C(O)CO [Gla, Glycolic acid], the “Density (g/cm^3)” value is given as 1.26 [126] g/cm^3.
For CCCCCCCCCCCCCC(=O)OC(C)C [IPM, Isoporpyl miristate], the “Density (g/cm^3)” value is given as 0.85 [126] g/cm^3.
In the case of CCCCCCCC/C=C\CCCCCCCC(=O)O [OLA, Oleic acid], the “Density (g/cm^3)” value is listed as 0.89 [126] g/cm^3.
For C[N+](C)(C)CCO [ChCl, Choline chloride], the “Density” value is listed as about 1.205 g/mL.
In the case of N[C@@H](CS)C(=O)O [Cys, L-Cysteine], the “Density (g/cm^3)” value is listed as 1.66 [126] g/cm^3.
For CC(O)CO (stereo not shown) [PG, Propylene glycol], the “Density (g/cm^3)” value is listed as 1.04 [126] g/cm^3.
For C[C@H](O)C(=O)O [Lac, L-lactic acid], the “Density (g/cm^3)” value is given as 1.25 [129] g/cm^3.
For Cc1cccc(Nc2ccccc2C(=O)O)c1C [MFA, Mefenamic acid, reference compound], the “Density (g/cm^3)” value is listed as 1.20 [125] g/cm^3.

Same assay, conditions: sol. 70%
In the case of C[N+](C)(C)CCO [ChCl, Choline chloride], the “Density” value is listed as about 1.1 g/mL.

Test system: rats
Settings: rat, in vivo, po
For CC1CCC(C(C)C)C(O)C1 (racemic) [MNT, (±)-menthol], the LD50 is listed as 3000 mg/kg.
